Measured values as given in patent US20240343740A1, “MACROCYCLIC GLUCAGON-LIKE PEPTIDE 1 RECEPTOR AGONISTS” (Eli Lilly and Company, priority 2021, published 2024).
Where a name gives a salt, the structure may show the parent alone.

Experiments:
[1] = molecular target: T1, human GLP-1R (Homo sapiens, UniProt P43220); test: Human GLP-1 Receptor HEK293 cell cAMP assay, 104 fmol/mg GLP-1R expression density; assay type: cell-based; design: expressed in transfected cells; host or cells: HEK293 clonal cell line; settings: HEK293 cell line with 104 fmol/mg expression density of GLP-1R; for EC50: geometric mean, read-out: EC50 nM (SEM, n), intracellular cAMP response, relative EC50; for Emax: percent of maximal response to GLP-1(7-36)NH2, arithmetic mean, read-out: Emax % (SEM, n), intracellular cAMP response
T1 sequence (P43220 24-463): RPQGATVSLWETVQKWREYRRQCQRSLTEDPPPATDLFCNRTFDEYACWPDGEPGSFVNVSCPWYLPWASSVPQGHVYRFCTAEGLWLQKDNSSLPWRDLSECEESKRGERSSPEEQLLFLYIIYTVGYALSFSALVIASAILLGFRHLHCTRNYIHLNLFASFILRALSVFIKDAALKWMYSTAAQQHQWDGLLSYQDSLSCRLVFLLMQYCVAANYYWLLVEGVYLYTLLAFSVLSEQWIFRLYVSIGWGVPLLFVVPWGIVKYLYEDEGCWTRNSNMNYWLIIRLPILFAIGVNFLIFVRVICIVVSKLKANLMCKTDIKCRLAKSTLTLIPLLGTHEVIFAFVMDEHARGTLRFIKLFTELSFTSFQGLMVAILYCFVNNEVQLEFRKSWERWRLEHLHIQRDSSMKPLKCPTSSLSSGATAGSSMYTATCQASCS
Procedure: (§1) Human GLP-1 Receptor HEK293 Cell cAMP Assay
(§2) GLP-1 Receptor functional activity is determined using cAMP formation in an HEK293 clonal cell line expressing human GLP-1R (NCBI accession number NP_002053) at an expression density of 581±94 (n=6) and 104±12 (n=5) fmol/mg protein (determined using [^125I]GLP-1(7-36)NH2 homologous competition binding analysis). The hGLP-1R receptor expressing cells are treated with compound (20 point concentration-response curve in DMSO, 2.75-fold Labcyte Echo direct dilution, 384 well plate Corning Cat #3570) in DMEM (Gibco Cat #31053) supplemented with 1× GlutaMAX™ (Gibco Cat #35050), 0.1% bovine casein (Sigma C4765-10ML), 250 μM IBMX (3-Isobutyl-1-methylxanthine, Acros Cat #228420010) and 20 mM HEPES (Gibco Cat #15630) in a 20 μL assay volume (final DMSO concentration is 0.5%). After a 30 min incubation at 37° C., the resulting increase in intracellular cAMP is quantitatively determined using the CisBio cAMP Dynamic 2 HTRF Assay Kit (62AM4PEJ). Briefly, cAMP levels within the cell are detected by adding the cAMP-d2 conjugate in cell lysis buffer (10 μL) followed by the antibody anti-cAMP-Eu^3+-Cryptate, also in cell lysis buffer (10 μL). The resulting competitive assay is incubated for at least 60 min at RT, then detected using a PerkinElmer Envision® instrument with excitation at 320 nm and emission at 665 nm and 620 nm. Envision units (emission at 665 nm/620 nm*10,000) are inversely proportional to the amount of cAMP present and are converted to nM cAMP per well using a cAMP standard curve. The amount of cAMP generated (nM) in each well is converted to a percent of the maximal response observed with human GLP-1(7-36)NH2. A relative EC50 value and percent top (Emax) are derived by non-linear regression analysis using the percent maximal response vs. the concentration of compound added, fitted to a four-parameter logistic equation.

[2] = molecular target: T1, human GLP-1R; test: Human GLP-1 Receptor HEK293 cell cAMP assay, 581 fmol/mg GLP-1R expression density; assay type: cell-based; design: expressed in transfected cells; host or cells: HEK293 clonal cell line; settings: HEK293 cell line with 581 fmol/mg expression density of GLP-1R; for EC50: geometric mean, read-out: EC50 nM (SEM, n), intracellular cAMP response, relative EC50; for Emax: percent of maximal response to GLP-1(7-36)NH2, arithmetic mean, read-out: Emax % (SEM, n), intracellular cAMP response
Procedure: as §1, §2

EC50 [1] | Emax [1] | EC50 [2] | Emax [2] | Compound
149 nM | 80% | 44 nM | 108% | Cn1cc(-c2ccc3c(c2)CCCOc2cc(ccc2Cc2nc4ccc(C(=O)O)cc4n2C[C@@H]2CCO2)-c2cccc(n2)OC3)ccc1=O [Example 36, (S)-2-((5^4-(1-Methyl-6-oxo-1,6-dihydropyridin-3-yl)-3,9-dioxa-2(2,6)-pyridina-1(1,3),5(1,2)-dibenzenacyclononaphane-1^4-yl)methyl)-1-(oxetan-2-ylmethyl)-1H-benzo[d]imidazole-6-carboxylic acid]
506 nM | 79.7% | 179 nM | 103% | O=C(O)c1ccc2nc(Cc3ccc4cc3OCCCc3cc(-c5cccnc5)ccc3COc3cccc-4n3)n(C[C@@H]3CCO3)c2c1 [Example 37, (S)-1-(Oxetan-2-ylmethyl)-2-((5^4-(pyridin-3-yl)-3,9-dioxa-2(2,6)-pyridina-1(1,3),5(1,2)-dibenzenacyclononaphane-1^4-yl)methyl)-1H-benzo[d]imidazole-6-carboxylic acid]
613 nM | 56.9% | 300 nM | 90.1% | CNC(=O)c1ccc(-c2ccc3c(c2)CCCOc2cc(ccc2Cc2nc4ccc(C(=O)O)cc4n2C[C@@H]2CCO2)-c2cccc(n2)OC3)cc1 [Example 38, (S)-2-((5^4-(4-(Methylcarbamoyl)phenyl)-3,9-dioxa-2(2,6)-pyridina-1(1,3),5(1,2)-dibenzenacyclononaphane-1^4-yl)methyl)-1-(oxetan-2-ylmethyl)-1H-benzo[d]imidazole-6-carboxylic acid]
762 nM | 76.6% | 244 nM | 99% | O=C(O)c1ccc2nc(Cc3ccc4cc3OCCCc3cc(-c5ccc(CO)cc5)ccc3COc3cccc-4n3)n(C[C@@H]3CCO3)c2c1 [Example 39, (S)-2-((5^4-(4-(Hydroxymethyl)phenyl)-3,9-dioxa-2(2,6)-pyridina-1(1,3),5(1,2)-dibenzenacyclononaphane-1^4-yl)methyl)-1-(oxetan-2-ylmethyl)-1H-benzo[d]imidazole-6-carboxylic acid]
154 nM | 85.9% | 42.4 nM | 110% | Cn1cc(-c2ccc3c(c2)CCCOc2cc(ccc2Cc2nc4ccc(C(=O)O)cc4n2C[C@@H]2CCO2)-c2cccc(n2)OC3)cn1 [Example 40, (S)-2-((5^4-(1-Methyl-1H-pyrazol-4-yl)-3,9-dioxa-2(2,6)-pyridina-1(1,3),5(1,2)-dibenzenacyclononaphane-1^4-yl)methyl)-1-(oxetan-2-ylmethyl)-1H-benzo[d]imidazole-6-carboxylic acid]
713 nM | 60.3% | 184 nM | 89.1% | N#Cc1ccc2c(c1)CCCOc1cc(ccc1Cc1nc3ccc(-c4nnn[nH]4)cc3n1C[C@@H]1CCO1)-c1cccc(n1)OC2 [Example 41, (S)-1^4-((1-(Oxetan-2-ylmethyl)-6-(1H-tetrazol-5-yl)-1H-benzo[d]imidazol-2-yl)methyl)-3,9-dioxa-2(2,6)-pyridina-1(1,3),5(1,2)-dibenzenacyclononaphane-5^4-carbonitrile]
539 nM | 66.4% | 187 nM | 103% | N#Cc1ccc2c(c1)OCCc1cc(c(F)cc1Cc1nc3ccc(C(=O)O)cc3n1C[C@@H]1CCO1)-c1cccc(n1)OC2 [Example 42, (S)-2-((5^4-Cyano-1^6-fluoro-3,6-dioxa-2(2,6)-pyridina-1(1,3),5(1,2)-dibenzenacyclooctaphane-1^4-yl)methyl)-1-(oxetan-2-ylmethyl)-1H-benzo[d]imidazole-6-carboxylic acid]
194 nM | 72% | 48.6 nM | 86.9% | COc1cc(C(=O)O)cc2c1nc(Cc1cc(F)c3cc1OCCCc1cc(C#N)cnc1COc1cccc-3n1)n2C[C@@H]1CCO1 [Example 43, (S)-2-((5^5-Cyano-1^6-fluoro-3,9-dioxa-2(2,6),5(2,3)-dipyridina-1(1,3)-benzenacyclononaphane-1^4-yl)methyl)-4-methoxy-1-(oxetan-2-ylmethyl)-1H-benzo[d]imidazole-6-carboxylic acid diformate salt]
16.4 nM | 85.5% | 4.14 nM | 112% | COc1cc(C(=O)O)cc2c1nc(Cc1cc(F)c3cc1CCOCc1cc(C#N)ccc1COc1cccc-3n1)n2C[C@@H]1CCO1 [Example 44, (S)-2-((5^4-Cyano-1^6-fluoro-3,7-dioxa-2(2,6)-pyridina-1(1,3),5(1,2)-dibenzenacyclononaphane-1^4-yl)methyl)-4-methoxy-1-(oxetan-2-ylmethyl)-1H-benzo[d]imidazole-6-carboxylic acid]
7.57 nM | 87.9% | 2.4 nM | 122% | COCCOc1cc(C(=O)O)cc2c1nc(Cc1cc(F)c3cc1COCCc1cc(Cl)cc(F)c1COc1cccc-3n1)n2C[C@@H]1CCO1 [Example 45, (S)-2-((5^4-Chloro-1^6,5^6-difluoro-3,8-dioxa-2(2,6)-pyridina-1(1,3),5(1,2)-dibenzenacyclononaphane-1^4-yl)methyl)-4-(2-methoxyethoxy)-1-(oxetan-2-ylmethyl)-1H-benzo[d]imidazole-6-carboxylic acid]
24.6 nM | 91.7% | 7.23 nM | 107% | COCCOc1cc(C(=O)O)cc2c1nc(Cc1ccc3cc1COCCc1nc(ccc1C#N)COc1cccc-3n1)n2C[C@@H]1CCO1 [Example 46, (S)-2-((5^5-Cyano-3,8-dioxa-2,5(2,6)-dipyridina-1(1,3)-benzenacyclononaphane-1^4-yl)methyl)-4-(2-methoxyethoxy)-1-(oxetan-2-ylmethyl)-1H-benzo[d]imidazole-6-carboxylic acid]
116 nM | 108% | 25.1 nM | 110% | COCCOc1cc(C(=O)O)cc2c1nc(Cc1cc(F)c3cc1CCOCc1cc(ccc1Cl)COc1cccc-3n1)n2C[C@@H]1CCO1 [Example 47, (S)-2-((5^4-Chloro-1^6-fluoro-3,7-dioxa-2(2,6)-pyridina-1,5(1,3)-dibenzenacyclononaphane-1^4-yl)methyl)-4-(2-methoxyethoxy)-1-(oxetan-2-ylmethyl)-1H-benzo[d]imidazole-6-carboxylic acid]
31.5 nM | 86.8% | 11.2 nM | 108% | COCCOc1cc(C(=O)O)cc2c1nc(Cc1cc(F)c3cc1CCOCc1cc(ccc1C#N)COc1cccc-3n1)n2C[C@@H]1CCO1 [Example 48, (S)-2-((5^4-Cyano-1^6-fluoro-3,7-dioxa-2(2,6)-pyridina-1,5(1,3)-dibenzenacyclononaphane-1^4-yl)methyl)-4-(2-methoxyethoxy)-1-(oxetan-2-ylmethyl)-1H-benzo[d]imidazole-6-carboxylic acid]
8.39 nM | 85.5% | 2.33 nM | 112% | COCCOc1cc(C(=O)O)cc2c1nc(Cc1ccc3cc1COCCc1cc(C#N)ccc1COc1ccc(F)c-3n1)n2C[C@@H]1CCO1 [Example 49, (S)-2-((5^4-Cyano-2^3-fluoro-3,8-dioxa-2(2,6)-pyridina-1(1,3),5(1,2)-dibenzenacyclononaphane-1^4-yl)methyl)-4-(2-methoxyethoxy)-1-(oxetan-2-ylmethyl)-1H-benzo[d]imidazole-6-carboxylic acid]
128 nM | 82.8% | 38.1 nM | 115% | COCCOc1cc(C(=O)O)cc2c1nc(Cc1ccc3cc1COCC(F)(F)c1cc(C#N)ccc1COc1cccc-3n1)n2C[C@@H]1CCO1 [Example 50, (S)-2-((5^4-cyano-6,6-difluoro-3.8-dioxa-2(2,6)-pyridina-1(1,3),5(1,2)-dibenzenacyclonaphane-1^4-yl)methyl)-4-(2-methoxyethoxy)-1-(oxatan-2-ylmethyl)-1H-benzo[d]imidazole-6-carboxylic acid]
